# Measurements from patent US20260297070A1, “CYCLIC [COMPOUND LEFT OUT] WRN INHIBITORS” (Nimbus Wadjet, Inc., priority 2023, published 2026).
# Biological target: T1, human Werner helicase (WRN-BV08, Uniprot Q14191, amino acids 517-1235 with L1074F point mutation) (Homo sapiens, UniProt Q14191, L1074F)
# T1 construct: Uniprot Q14191, amino acids 517-1235 with L1074F point mutation; TEV-cleavable 8×His (C, cleaved yes); made in house; host or cells: Sf9 insect cells (baculovirus)
# Test: WRN (BV08) ADP-Glo Assay
# Format: biochemical
# Details: 0.15 nM WRN, 5 μM ATP, 0.1 nM DNA duplex, 15 min preincubation, 60 min at 25° C., pH 7.5, 1% DMSO; read-out: ADP-Glo_hWRN_IC50
# In short: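 Percent inhibition was normalised to DMSO (max) and 20 μM NSC-617145 (min) controls from ADP-Glo luminescence, and IC50 values came from a four-parameter fit. The reaction ran 60 min at 25 °C with 0.15 nM WRN, 5 μM ATP and 0.1 nM duplex DNA.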
# T1 sequence (Q14191 with tags, fused parts or gaps L1074F limits assumed): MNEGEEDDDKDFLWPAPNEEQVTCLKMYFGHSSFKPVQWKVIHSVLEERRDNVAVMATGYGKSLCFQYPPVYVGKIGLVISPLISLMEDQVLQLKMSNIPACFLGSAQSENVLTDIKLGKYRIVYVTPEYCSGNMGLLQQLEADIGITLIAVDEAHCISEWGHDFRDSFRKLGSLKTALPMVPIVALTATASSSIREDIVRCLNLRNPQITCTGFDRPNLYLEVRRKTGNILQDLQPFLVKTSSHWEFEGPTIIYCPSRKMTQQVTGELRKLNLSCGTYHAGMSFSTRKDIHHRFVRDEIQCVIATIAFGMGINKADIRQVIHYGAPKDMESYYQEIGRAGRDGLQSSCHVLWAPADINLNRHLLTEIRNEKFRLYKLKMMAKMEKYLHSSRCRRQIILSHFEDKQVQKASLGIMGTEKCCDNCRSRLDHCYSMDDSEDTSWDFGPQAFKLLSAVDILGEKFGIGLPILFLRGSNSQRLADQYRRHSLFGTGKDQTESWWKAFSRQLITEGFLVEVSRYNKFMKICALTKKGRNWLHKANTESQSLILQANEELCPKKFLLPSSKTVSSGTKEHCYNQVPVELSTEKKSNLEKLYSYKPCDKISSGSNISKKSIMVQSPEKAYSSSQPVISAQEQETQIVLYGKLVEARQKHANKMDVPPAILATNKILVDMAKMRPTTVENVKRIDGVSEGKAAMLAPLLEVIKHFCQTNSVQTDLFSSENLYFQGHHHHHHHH
row,IC50,SMILES
1,< 0.5 µM,"CNC(=O)C(C(=O)N(Cc1ccnc(OC)c1)[C@@H]1C=CS(=O)(=O)C1)c1ccc(-c2ccc(F)c(F)c2)cc1F (single isomer, unassigned) [I-693, (2R*)-N′-[(3R)-1,1-dioxo-2,3-dihydro-1lambda6-thiophen-3-yl]-N′-[(2-methoxypyridin-4-yl)methyl]-N-methyl-2-{3,3′,4′-trifluoro-[1,1′-biphenyl]-4-yl}propanediamide]"
2,< 0.5 µM,"O=C(Cn1cc(-c2ccc(F)cc2)cn1)N(Cc1nc(C2CC2)cs1)C1C=CS(=O)(=O)C1 (centres unmarked) [I-49, N-[(4-cyclopropyl-1,3-thiazol-2-yl)methyl]-N-(1,1-dioxo-2,3-dihydro-1lambda6-thiophen-3-yl)-2-[4-(4-fluorophenyl)-1H-pyrazol-1-yl]acetamide]"
3,0.5 to 5 µM,"CC(C)OC(C(=O)N(Cc1ccnc(C(C)(C)O)c1)C1C=CS(=O)(=O)C1)c1ccc(-c2ccc(F)c(F)c2)cc1F (centres unmarked) [I-167, N-(1,1-dioxo-2,3-dihydro-1lambda6-thiophen-3-yl)-N-{[2-(2-hydroxypropan-2-yl)pyridin-4-yl]methyl}-2-(propan-2-yloxy)-2-{3,3′,4′-trifluoro-[1,1′-biphenyl]-4-yl}acetamide]"
4,> 50 µM,"COc1cc(CN(C(=O)C(OC)c2ccc(-c3ccc(F)cc3)cc2F)C2C=CS(=O)(=O)C2)ccn1 (single isomer, unassigned) [I-404, (2R*)-2-{3,4′-difluoro-[1,1′-biphenyl]-4-yl}-N-[(3R**)-1,1-dioxo-2,3-dihydro-1lambda6-thiophen-3-yl]-2-methoxy-N-[(2-methoxypyridin-4-yl)methyl]acetamide]"
5,0.5 to 5 µM,"COc1cc(CN(C(=O)C2Cc3cc(-n4cccc4C)ccc3O2)C2C=CS(=O)(=O)C2)ccn1 (centres unmarked) [I-109, N-(1,1-dioxido-2,3-dihydrothiophen-3-yl)-N-((2-methoxypyridin-4-yl)methyl)-5-(2-methyl-1H-pyrrol-1-yl)-2,3-dihydrobenzofuran-2-carboxamide]"
6,5 to 10 µM,"O=C(Cc1ccc2cc(Br)ccc2c1)N(Cc1ccncc1)C1C=CS(=O)(=O)C1 (centres unmarked) [I-220, 2-(6-bromonaphthalen-2-yl)-N-(1,1-dioxo-2,3-dihydro-1lambda6-thiophen-3-yl)-N-[(pyridin-4-yl)methyl]acetamide]"
7,5 to 10 µM,"COc1cc(CN(C(=O)Cn2nc3ccc(C(F)(F)F)cc3c2C)[C@@H]2C=CS(=O)(=O)C2)ccn1 [I-766, N-[(3R)-1,1-dioxo-2,3-dihydro-1lambda6-thiophen-3-yl]-N-[(2-methoxypyridin-4-yl)methyl]-2-[3-methyl-5-(trifluoromethyl)-2H-indazol-2-yl]acetamide]"
8,< 0.5 µM,"O=C(Cn1cc(-c2cc(F)c(F)c(F)c2)cn1)N(Cc1ccc(Cc2ccncc2)cc1)C1C=CS(=O)(=O)C1 (centres unmarked) [I-782, N-(1,1-dioxo-2,3-dihydro-1lambda6-thiophen-3-yl)-N-({4-[(pyridin-4-yl)methyl]phenyl}methyl)-2-[4-(3,4,5-trifluorophenyl)-1H-pyrazol-1-yl]acetamide]"
9,10 to 50 µM,"CC(C)(O)c1cc(CN(C(=O)C2Cc3cc(-c4ccc(F)cc4)ccc3O2)C2C=CS(=O)(=O)C2)ccn1 (centres unmarked) [I-298, N-(1,1-dioxo-2,3-dihydro-1lambda6-thiophen-3-yl)-5-(4-fluorophenyl)-N-{[2-(2-hydroxypropan-2-yl)pyridin-4-yl]methyl}-2,3-dihydro-1-benzofuran-2-carboxamide]"
10,< 0.5 µM,"CC(C)(O)c1cc(CN(C(=O)Cn2cc(-c3ccc(F)cc3)cn2)[C@@H]2C=CS(=O)(=O)C2)ccn1 [I-15, N-[(3R)-1,1-dioxo-2,3-dihydro-1lambda6-thiophen-3-yl]-2-[4-(4-fluorophenyl)-1H-pyrazol-1-yl]-N-{[2-(2-hydroxypropan-2-yl)pyridin-4-yl]methyl}acetamide]"
11,10 to 50 µM,"Cc1scnc1-c1ccc(CC(=O)N(Cc2ccncc2)C2C=CS(=O)(=O)C2)c(F)c1 (centres unmarked) [I-320, N-(1,1-dioxo-2,3-dihydro-1lambda6-thiophen-3-yl)-2-[2-fluoro-4-(5-methyl-1,3-thiazol-4-yl)phenyl]-N-[(pyridin-4-yl)methyl]acetamide]"
12,0.5 to 5 µM,"Cc1cccn1-c1ccc(C(C(=O)N(C)C)C(=O)N(Cc2ccnc(C(C)(C)O)c2)C2C=CS(=O)(=O)C2)c(F)c1 (centres unmarked) [I-174, N-(1,1-dioxo-2,3-dihydro-1lambda6-thiophen-3-yl)-2-[2-fluoro-4-(2-methyl-1H-pyrrol-1-yl)phenyl]-N-{[2-(2-hydroxypropan-2-yl)pyridin-4-yl]methyl}-N′,N′-dimethylpropanediamide]"
13,> 50 µM,"O=C(C1CCc2cc(Br)ccc2O1)N(Cc1ccncc1)C1C=CS(=O)(=O)C1 (centres unmarked) [I-678, 6-bromo-N-(1,1-dioxo-2,3-dihydro-1lambda6-thiophen-3-yl)-N-[(pyridin-4-yl)methyl]-3,4-dihydro-2H-1-benzopyran-2-carboxamide]"
14,> 50 µM,"Cc1nn(CC(=O)N(Cc2ccncc2)C2C=CS(=O)(=O)C2)cc1-c1ccccc1 (centres unmarked) [I-446, N-(1,1-dioxo-2,3-dihydro-1lambda6-thiophen-3-yl)-2-(3-methyl-4-phenyl-1H-pyrazol-1-yl)-N-[(pyridin-4-yl)methyl]acetamide]"
15,0.5 to 5 µM,"CC(C)(O)c1cc(CN(C(=O)Cc2ccc(-c3ccc(F)cc3)cc2Cl)C2C=CS(=O)(=O)C2)ccn1 (centres unmarked) [I-101, 2-{3-chloro-4′-fluoro-[1,1′-biphenyl]-4-yl}-N-(1,1-dioxo-2,3-dihydro-1lambda6-thiophen-3-yl)-N-{[2-(2-hydroxypropan-2-yl)pyridin-4-yl]methyl}acetamide]"
16,10 to 50 µM,"COc1cc(CN(C(=O)CCc2ccc(S(F)(F)(F)(F)F)cc2)C2C=CS(=O)(=O)C2)ccn1 (centres unmarked) [I-343, N-(1,1-dioxo-2,3-dihydro-1lambda6-thiophen-3-yl)-N-[(2-methoxypyridin-4-yl)methyl]-3-[4-(pentafluoro-lambda6-sulfanyl)phenyl]propanamide]"
17,< 0.5 µM,"Cc1cccn1-c1ccc(CC(=O)N(Cc2nc(C3CC3)cs2)C2C=CS(=O)(=O)C2)c(F)c1 (centres unmarked) [I-60, N-[(4-cyclopropyl-1,3-thiazol-2-yl)methyl]-N-(1,1-dioxo-2,3-dihydro-1lambda6-thiophen-3-yl)-2-[2-fluoro-4-(2-methyl-1H-pyrrol-1-yl)phenyl]acetamide]"
18,0.5 to 5 µM,"COc1cc(CN(C(=O)C(OC)c2ccc(S(F)(F)(F)(F)F)cc2)C2C=CS(=O)(=O)C2)ccn1 (centres unmarked) [I-92, N-(1,1-dioxo-2,3-dihydro-1lambda6-thiophen-3-yl)-2-methoxy-N-[(2-methoxypyridin-4-yl)methyl]-2-[4-(pentafluoro-lambda6-sulfanyl)phenyl]acetamide]"
19,0.5 to 5 µM,"O=C(Cc1ccc(S(F)(F)(F)(F)F)cc1)N(Cc1ccnc(OC(F)F)c1)C1C=CS(=O)(=O)C1 (centres unmarked) [I-605, N-{[2-(difluoromethoxy)pyridin-4-yl]methyl}-N-(1,1-dioxo-2,3-dihydro-1lambda6-thiophen-3-yl)-2-[4-(pentafluoro-lambda6-sulfanyl)phenyl]acetamide]"
20,< 0.5 µM,"COc1cc(CN(C(=O)Cc2ccc(S(F)(F)(F)(F)F)cc2)C2C=CS(=O)(=O)C2)ccn1 (centres unmarked) [I-29, N-(1,1-dioxo-2,3-dihydro-1lambda6-thiophen-3-yl)-N-[(2-methoxypyridin-4-yl)methyl]-2-[4-(pentafluoro-lambda6-sulfanyl)phenyl]acetamide]"
